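Cultured in 96-well plates, cells were exposed to test compound for 48 hours across five concentrations. GI50 marks 50% less growth. The concentration for full growth arrest is given as TGI.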
What was measured:
Experiment in all cases: NCI anticancer screen, dose series, 48 h
A498 renal = test system: A498 renal
CCRF-CEM leukemia = test system: CCRF-CEM leukemia
HOP-62 NSCLC = test system: HOP-62 NSCLC
RPMI-8226 leukemia = test system: RPMI-8226 leukemia
SF-268 CNS = test system: SF-268 CNS
SF-295 CNS = test system: SF-295 CNS
SF-539 CNS = test system: SF-539 CNS
SK-MEL-28 melanoma = test system: SK-MEL-28 melanoma
SK-MEL-5 melanoma = test system: SK-MEL-5 melanoma
U251 CNS = test system: U251 CNS
UACC-62 melanoma = test system: UACC-62 melanoma

In the case of `Nc1ccc2[nH]c3c(-c4ccccc4)nccc3c2c1`, the TGI (A498 renal) is reported as > 100 µM, the TGI (CCRF-CEM leukemia) is reported as > 100 µM and the TGI (HOP-62 NSCLC) is reported as > 100 µM. For the same compound, the TGI (RPMI-8226 leukemia) was > 100 µM, the TGI (SF-268 CNS) was > 100 µM and the TGI (SF-295 CNS) was > 100 µM. The TGI (SF-539 CNS) was > 100 µM, the TGI (SK-MEL-28 melanoma) was > 100 µM and the TGI (SK-MEL-5 melanoma) was > 31.6 µM. The TGI (U251 CNS) was > 100 µM and the TGI (UACC-62 melanoma) was > 80.8 µM.

`C[C@]12CCc3nc(Nc4ccccc4)sc3C1=CC[C@@H]1[C@@H]2CC[C@]2(C)/C(=N/NC(N)=S)CC[C@@H]12` was tested, and the GI50 (A498 renal) was 1.39 µM, the TGI (A498 renal) was > 100 µM and the GI50 (CCRF-CEM leukemia) was 1.98 µM. The TGI (CCRF-CEM leukemia) was > 100 µM, the GI50 (HOP-62 NSCLC) was 17.6 µM and the TGI (HOP-62 NSCLC) was > 100 µM. For the same compound, the GI50 (RPMI-8226 leukemia) was 1.61 µM, the TGI (RPMI-8226 leukemia) was 6.61 µM and the GI50 (SF-295 CNS) was 3.75 µM. The TGI (SF-295 CNS) was 72.3 µM, the GI50 (SK-MEL-28 melanoma) was 4.49 µM and the TGI (SK-MEL-28 melanoma) was > 100 µM. The GI50 (SK-MEL-5 melanoma) was 5.9 µM, the TGI (SK-MEL-5 melanoma) was > 100 µM and the GI50 (U251 CNS) was 3.64 µM. The TGI (U251 CNS) was > 100 µM, the GI50 (UACC-62 melanoma) was 5.85 µM and the TGI (UACC-62 melanoma) was > 100 µM.

In the case of `COc1ccc(/C(Cl)=C(\C=O)c2ccc(F)cc2)cc1OC`, the TGI (A498 renal) is reported as 54.8 µM, the TGI (CCRF-CEM leukemia) is reported as 48.6 µM and the TGI (HOP-62 NSCLC) is reported as 52.6 µM. The TGI (RPMI-8226 leukemia) was 46.3 µM, the TGI (SF-268 CNS) was 83.3 µM and the TGI (SF-295 CNS) was 63.2 µM. The TGI (SF-539 CNS) was 59 µM, the TGI (SK-MEL-28 melanoma) was 68.4 µM and the TGI (SK-MEL-5 melanoma) was 37.7 µM. The TGI (U251 CNS) was 33.6 µM and the TGI (UACC-62 melanoma) was 61.6 µM.

In the case of `Cc1[nH]c(=O)[nH]c(=O)c1/C=C/C(=O)O`, the TGI (A498 renal) is reported as > 1000 µM, the TGI (CCRF-CEM leukemia) is reported as > 1000 µM and the TGI (HOP-62 NSCLC) is reported as > 1000 µM. For the same compound, the TGI (RPMI-8226 leukemia) was > 1000 µM, the TGI (SF-268 CNS) was > 1000 µM and the TGI (SF-295 CNS) was > 1000 µM. The TGI (SF-539 CNS) was > 1000 µM, the TGI (SK-MEL-28 melanoma) was > 1000 µM and the TGI (SK-MEL-5 melanoma) was > 1000 µM. For the same compound, the TGI (U251 CNS) was > 1000 µM and the TGI (UACC-62 melanoma) was > 1000 µM.

`N=C(N)c1ccc(N=Nc2c(O)ccc3c2[nH]c2ccccc23)cc1` was tested, and the TGI (A498 renal) was > 100 µM, the TGI (HOP-62 NSCLC) was > 100 µM and the TGI (RPMI-8226 leukemia) was 5.07 µM. The TGI (SF-268 CNS) was > 100 µM, the TGI (SF-295 CNS) was > 84.4 µM and the TGI (SF-539 CNS) was > 100 µM. The TGI (SK-MEL-28 melanoma) was > 70.9 µM, the TGI (SK-MEL-5 melanoma) was > 100 µM and the TGI (UACC-62 melanoma) was > 100 µM.

For `O=C(NC(Cc1ccc(I)cc1)C(=O)O)c1ccc(Br)cc1` (configuration not stated), the TGI (A498 renal) was > 100 µM, the TGI (CCRF-CEM leukemia) was > 100 µM and the TGI (HOP-62 NSCLC) was > 100 µM. For the same compound, the TGI (RPMI-8226 leukemia) was > 100 µM, the TGI (SF-268 CNS) was > 100 µM and the TGI (SF-295 CNS) was > 100 µM. For the same compound, the TGI (SF-539 CNS) was > 100 µM, the TGI (SK-MEL-28 melanoma) was > 100 µM and the TGI (SK-MEL-5 melanoma) was > 100 µM. For the same compound, the TGI (U251 CNS) was > 100 µM and the TGI (UACC-62 melanoma) was > 100 µM.

`COc1cc(Nc2c3ccccc3nc3ccccc23)ccc1NS(C)(=O)=O` was tested, and the TGI (A498 renal) was 19.6 µM, the TGI (CCRF-CEM leukemia) was > 100 µM and the TGI (HOP-62 NSCLC) was 24.3 µM. The TGI (RPMI-8226 leukemia) was > 100 µM, the TGI (SF-268 CNS) was 25.5 µM and the TGI (SF-295 CNS) was 15.2 µM. For the same compound, the TGI (SF-539 CNS) was 15.6 µM, the TGI (SK-MEL-28 melanoma) was 20.4 µM and the TGI (SK-MEL-5 melanoma) was 28.6 µM. For the same compound, the TGI (U251 CNS) was 25.2 µM and the TGI (UACC-62 melanoma) was 26.7 µM.

With `Cc1ccc(S(=O)(=O)OCC(=O)O)cc1` the TGI (A498 renal) was > 100 µM, the TGI (CCRF-CEM leukemia) was > 100 µM and the TGI (HOP-62 NSCLC) was > 100 µM. For the same compound, the TGI (RPMI-8226 leukemia) was > 100 µM, the TGI (SF-268 CNS) was > 100 µM and the TGI (SF-295 CNS) was > 100 µM. The TGI (SK-MEL-28 melanoma) was > 100 µM, the TGI (SK-MEL-5 melanoma) was > 100 µM and the TGI (U251 CNS) was > 100 µM. The TGI (UACC-62 melanoma) was > 100 µM.

From PubChem BioAssay (NCI)
